Patent publication EP4700040A1, “PEPTIDE AND LUMINESCENT COMPLEX CONTAINING SAME” (Shenzhen Loggene Life Science & Technology Co., Ltd., priority 2023, dated 2024)

Key:
PCT [1] = assay: Second library screening for PCT detection, clone supernatants, retest with CTZ-h (Example 4); format: biochemical, human
Procedure: In order to further improve the signal-to-noise ratio and complementary activity of the luciferase dual-antibody complementary activation assay, novel complementary luciferase small subunits were prepared in this example. Large subunit-rSCFV5 fusion protein (SEQ ID NO: 87) was kept unchanged, and the small subunit sequence of the rSCFV18-RB073 fusion protein (SEQ ID NO: 89) were modified by semi-randomization. The theoretical diversity was 6912, the library capacity was 10^6, and 3,000 single clones were picked. The method of protein induction and expression was the same as that in Example 2.
(§1) Detection Methods: • (1) The concentration of large subunit-rSCFV5 fusion protein was diluted to 12.5 nM, and 15 µl was added per well; • (2) MBP-PCT fusion protein was diluted to 3.3 ng/ml with PBSAD, and 10 µl was added per well; • (3) HB2151 strain containing plasmids with different small subunit sequences were induced by IPTG at 30°C overnight, then treated with polymyxin B for 1.5h, and centrifuged to collect the supernatant, and 2.5µl supernatant was added per well; • (4) The above three components were slightly mixed, incubated at 37°C for 7 min, and Obuffer 6.37-3 containing Furimazine at a concentration of 25 µM was added, and after 3 min, the luminescence signal value was detected using a bioluminescence detector; and • (5) Clones with RLU higher than 10,000 were picked. The substrate was replaced with CTZ-h substrate for retesting (Obuffer 6.37-3 containing CTZ-h at a concentration of 25 µM was added, and after 60 s, the luminescence signal value was detected using a bioluminescence detector), and a PBSAD control was added to test the signal-to-noise ratio.

PCT [2] = assay: Sensitivity and linear range for PCT detection of preferred small subunits (Example 5); format: biochemical, human; conditions: for luminescence value: normalized
Procedure: Detection Methods: • (1) The concentration of large subunit-rSCFV5 fusion protein was diluted with PBSA to 8.3~25nM, and 15µl was added per well; • (2) MBP-PCT fusion proteins were diluted with PBSAD in a downward gradient starting from 2.5 µg/ml, and 10 µl was added per well; • (3) The rSCFV18-small subunit mutant-containing fusion protein was diluted with PBSA to 30~180 nM, and 15 µl was added per well; • (4) The above three components were slightly mixed, incubated at 37°C for 15 min, and Obuffer 6.37-3 containing CTZ-h at a concentration of 15 µM was added, and the luminescence signal value was immediately detected using a bioluminescence detector (the luminescence value was normalized);

PCT [3] = assay: Complementary activity of small subunits mutated at conserved positions, Furimazine substrate (Example 6); format: biochemical, human; conditions: MBP-PCT 3.3 ng/ml, supernatant
Procedure: as §1, with “[…],” for “and after 3 min,”
In order to further determine whether these three conserved amino acid sequences were changed, this example constructed a random mutation library of these three positions, with a theoretical diversity of 8,000 and a library capacity of 10^6, and 2,000 single clones were picked. The method of protein induction and expression was the same as that in Example 1. The complementary activity was tested in the same manner as that in Example 4, but the signal-to-noise ratio was not retested with CTZ-h. Clones with different activity were randomly picked for sequencing.

[4] = test system: human interleukin 6 (human IL6); assay: Luciferase dual-antibody complementary activation assay for human IL6 (Example 7); format: biochemical; conditions: estimated by ((mean+3SD)-RLU0.5)/(RLU5-RLU0.5)*4.5+0.5
Text: Expression and purification of human IL6 recombinant protein: An expression vector of human IL6 (UniProtKB ID: P05231, AA29~212) with six histidine-tagged (C-terminal) fusion proteins (SEQ ID NO: 90) was constructed. The fusion protein was recombinantly expressed in E. coli, and purified with nickel column. The protein purity was detected by denaturing SDS-polyacrylamide gel electrophoresis, and the protein concentration was detected by nucleic acid-protein quantification instrument.
Expression and purification of a fusion protein of the small and large subunits with IL6 antibody: prokaryotic expression plasmids of the fusion protein RB073-449-1 (SEQ ID NO: 91) of the small subunit peptide RB073 with human IL6 SCFV antibody 449-1, and the fusion protein OL-453 (SEQ ID NO: 92) of the large subunit with human IL6 SCFV antibody 453 were constructed. The fusion proteins were recombinantly expressed in E. coli, and purified with nickel column. The protein purity was detected by denaturing SDS-polyacrylamide gel electrophoresis, and the protein concentration was detected by nucleic acid-protein quantification instrument.
Test Methods • (1) Recombinant human IL6 protein was diluted with PBSA in 10-fold gradient starting from 5000 pg/ml, with 5 gradients in total. […]

Sequence	Signal-to-noise ratio (PCT [1]; PCT+/PCT-, MBP-PCT 3.3 ng/ml, CTZ-h)	PCT+ (PCT [1]; luminescence signal value with MBP-PCT 3.3 ng/ml, large subunit-rSCFV5 12.5 nM, CTZ-h 25 µM, 60 s)	PCT- (PCT [1]; luminescence signal value, PBSAD control without PCT, large subunit-rSCFV5 12.5 nM, CTZ-h 25 µM, 60 s)	luminescence value (PCT [2]; PCT 0.0, background)	luminescence value (PCT [2]; PCT 1 (pg/ml))	luminescence value (PCT [2]; PCT 3 (pg/ml))	luminescence value (PCT [2]; PCT 10 (pg/ml))	luminescence value (PCT [2]; PCT 30 (pg/ml))	luminescence value (PCT [2]; PCT 100 (pg/ml))	luminescence value (PCT [2]; PCT 1000 (pg/ml))	luminescence value (PCT [2]; PCT 10000 (pg/ml))	luminescence value (PCT [2]; PCT 100000 (pg/ml))	luminescence value (PCT [2]; PCT 250000 (pg/ml))	Signal-to-noise ratio at 1000 pg/ml (PCT [2]; large subunit 8.3~25 nM, small subunit fusion 30~180 nM, CTZ-h 15 µM)	activity (luminescence signal value), 3 min (PCT [3]; 3 min after Furimazine 25 µM)	activity (luminescence signal value), 6 min (PCT [3]; 6 min after Furimazine 25 µM)	LLD (low limit of detection) [4] [pg/mL]
VTGYRLFEEIL [P114, reference compound]	1.9	1493	786	5000	5324	5403	5314	5724	5429	18939	99257	804042	1431884	3.8	–	–	–
VEGYRLFDRKS [RB073]	–	–	–	–	–	–	–	–	–	–	–	–	–	–	46672	32973	0.79
